Reference: PMC4994278, “Characterization of a glucose-tolerant β-glucosidase from Anoxybacillus sp. DT3-1” (Biotechnology for Biofuels, 2016)

Target: T1, DT-Bgl (Anoxybacillus gonensis, UniProt M5QUM2)
T1 construct: full-length ORF, 453 residues (no signal peptide), pET-28a BamHI/XhoI, Ni-NTA purified (His tag, removal not mentioned), E. coli BL21(DE3), 53 kDa on SDS-PAGE
Test: HPLC of cellobiose hydrolysis with added glucose
Format: biochemical
Conditions: 400000 µM; substrate cellobiose (1% w/v in substrate assay), 100 mM glycine-NaOH pH 8.5, 60 °C; product inhibition

- % relative activity in 0.4 M glucose: 54%
SMILES: OC[C@H]1OC(O)[C@H](O)[C@@H](O)[C@@H]1O (stereo partly shown) [glucose]
